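Assay format: 96-well plates, 48-hour exposure. At the GI50, growth is halved.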 Activity calls are given as the source filed them. Rule as the data show it: active = GI50 up to about 1.1 µM and inactive = higher.
Assays:
Assay in all cases: NCI-60 cell line screen, 48 h
[1] = test system: BT-549
[2] = test system: CCRF-CEM
[3] = test system: DU-145
[4] = test system: EKVX
[5] = test system: HCT-116
[6] = test system: HT-29
[7] = test system: MDA-MB-435
[8] = test system: MDA-N
[9] = test system: MOLT-4
[10] = test system: NCI-H226
[11] = test system: NCI-H23
[12] = test system: NCI/ADR-RES
[13] = test system: OVCAR-3
[14] = test system: OVCAR-8
[15] = test system: RPMI-8226
[16] = test system: SF-539
[17] = test system: T47D
[18] = test system: TK-10
[19] = test system: U-251
[20] = test system: UACC-62

Row | SMILES | GI50 [1] | GI50 [2] | GI50 [3] | GI50 [4] | GI50 [5] | GI50 [6] | GI50 [7] | GI50 [8] | GI50 [9] | GI50 [10] | GI50 [11] | GI50 [12] | GI50 [13] | GI50 [14] | GI50 [15] | GI50 [16] | GI50 [17] | GI50 [18] | GI50 [19] | GI50 [20]
1 | O=c1oc2ccccc2cc1-c1csc(Nc2cc(Cl)cc(Cl)c2)n1 | > 54.8 µM (inactive) | 25.2 µM (inactive) | 31.2 µM (inactive) | > 55.6 µM (inactive) | 3.6 µM (inactive) | 2.85 µM (inactive) | 4.9 µM (inactive) | 29.2 µM (inactive) | > 43 µM (inactive) | > 35.8 µM (inactive) | > 38.1 µM (inactive) | 6.59 µM (inactive) | 11.5 µM (inactive) | 4.11 µM (inactive) | > 100 µM (inactive) | 2.28 µM (inactive) | 15.5 µM (inactive) | 20.6 µM (inactive) | 2.39 µM (inactive) | 52.5 µM (inactive)
2 | COc1cc(C(=O)NC2CCc3cc(OC)c(OC)c(OC)c3-c3ccc(OC)c(=O)cc32)cc(OC)c1OC (centres undefined) | 0.083 µM (active) | 0.0339 µM (active) | 0.24 µM (active) | 12 µM (inactive) | 0.043 µM (active) | 0.0467 µM (active) | 0.0292 µM (active) | 0.0202 µM (active) | 0.0451 µM (active) | 0.444 µM (active) | 0.0809 µM (active) | 18.2 µM (inactive) | 0.0372 µM (active) | 0.201 µM (active) | 0.0279 µM (active) | 0.0228 µM (active) | 18.8 µM (inactive) | 1.49 µM (inactive) | 0.0555 µM (active) | 0.0711 µM (active)
3 | O=C(O)c1ccc(NCc2nc3cc4ccccc4cc3[nH]2)cc1 | > 100 µM (inactive) | > 100 µM (inactive) | > 100 µM (inactive) | > 100 µM (inactive) | > 100 µM (inactive) | > 100 µM (inactive) | > 100 µM (inactive) | > 100 µM (inactive) | > 100 µM (inactive) | > 100 µM (inactive) | > 100 µM (inactive) | > 100 µM (inactive) | > 100 µM (inactive) | > 100 µM (inactive) | > 100 µM (inactive) | > 100 µM (inactive) | > 100 µM (inactive) | > 100 µM (inactive) | > 100 µM (inactive) | > 100 µM (inactive)
4 | C=C(CCC(C(=O)O)C1CCC2(C)C3=C(CCC12C)C1(C)CCC(O)C(C)(C)C1CC3)C(C)C (centres undefined) | 83.6 µM (inactive) | > 10 µM (inactive) | > 100 µM (inactive) | 27.5 µM (inactive) | 28.6 µM (inactive) | 32.7 µM (inactive) | > 100 µM (inactive) | 86.7 µM (inactive) | 26.9 µM (inactive) | 30.2 µM (inactive) | 29.6 µM (inactive) | 19.3 µM (inactive) | 45.6 µM (inactive) | 19.1 µM (inactive) | 19.9 µM (inactive) | > 100 µM (inactive) | 58.1 µM (inactive) | > 100 µM (inactive) | 22 µM (inactive) | 34.9 µM (inactive)
5 | CC1=NN(C(=O)CC(=O)Nc2ccccc2C)C(=O)C1/N=N\c1ccc(S(=O)(=O)c2ccc(/N=N/C3C(=O)N(C(=O)CC(=O)Nc4ccccc4C)N=C3C)cc2)cc1 (centres undefined) | > 100 µM (inactive) | > 100 µM (inactive) | > 100 µM (inactive) | > 100 µM (inactive) | > 100 µM (inactive) | > 100 µM (inactive) | > 100 µM (inactive) | > 100 µM (inactive) | > 100 µM (inactive) | > 100 µM (inactive) | > 100 µM (inactive) | > 100 µM (inactive) | > 100 µM (inactive) | 74.6 µM (inactive) | > 100 µM (inactive) | > 100 µM (inactive) | > 100 µM (inactive) | > 100 µM (inactive) | 67.9 µM (inactive) | > 100 µM (inactive)
6 | CC1CC[C@@H](C(C)C)[C@H](Oc2nnc(C3OC(CO)C(O)C3O)o2)C1 (some centres undefined) | > 100 µM (inactive) | > 100 µM (inactive) | > 100 µM (inactive) | > 100 µM (inactive) | > 100 µM (inactive) | > 100 µM (inactive) | > 100 µM (inactive) | > 100 µM (inactive) | > 100 µM (inactive) | > 100 µM (inactive) | > 100 µM (inactive) | > 100 µM (inactive) | > 100 µM (inactive) | > 100 µM (inactive) | > 100 µM (inactive) | > 100 µM (inactive) | > 100 µM (inactive) | > 100 µM (inactive) | > 100 µM (inactive) | > 100 µM (inactive)
7 | O=[N+]([O-])c1ccc(/N=N\c2c(O)c(S(=O)(=O)O)cc3cc(S(=O)(=O)O)ccc23)cc1 | > 100 µM (inactive) | > 100 µM (inactive) | > 100 µM (inactive) | > 100 µM (inactive) | > 100 µM (inactive) | > 100 µM (inactive) | > 100 µM (inactive) | > 100 µM (inactive) | > 100 µM (inactive) | > 100 µM (inactive) | > 100 µM (inactive) | > 100 µM (inactive) | 27 µM (inactive) | > 100 µM (inactive) | > 100 µM (inactive) | > 100 µM (inactive) | > 100 µM (inactive) | > 100 µM (inactive) | > 100 µM (inactive) | > 100 µM (inactive)
8 | O=C(O)/C=C\C(=O)Nc1ccc2c(c1)C(=O)c1cc(F)ccc1-2 | > 100 µM (inactive) | > 100 µM (inactive) | > 100 µM (inactive) | > 100 µM (inactive) | > 100 µM (inactive) | > 100 µM (inactive) | > 100 µM (inactive) | > 100 µM (inactive) | > 100 µM (inactive) | > 100 µM (inactive) | > 100 µM (inactive) | > 100 µM (inactive) | > 100 µM (inactive) | > 100 µM (inactive) | > 100 µM (inactive) | > 100 µM (inactive) | > 100 µM (inactive) | > 100 µM (inactive) | 99.8 µM (inactive) | > 100 µM (inactive)
9 | COC(=O)c1sc2ncc3c(c2c1N)CCCCCC3 | > 100 µM (inactive) | > 100 µM (inactive) | > 100 µM (inactive) | > 100 µM (inactive) | > 100 µM (inactive) | > 100 µM (inactive) | > 100 µM (inactive) | > 100 µM (inactive) | > 100 µM (inactive) | > 100 µM (inactive) | > 100 µM (inactive) | > 100 µM (inactive) | > 100 µM (inactive) | > 100 µM (inactive) | > 100 µM (inactive) | > 100 µM (inactive) | > 100 µM (inactive) | > 100 µM (inactive) | > 100 µM (inactive) | > 100 µM (inactive)
10 | N#Cc1c(-c2cccc(Br)c2)cc(-c2ccc(Cl)cc2)nc1N | 33 µM (inactive) | 27.2 µM (inactive) | 46 µM (inactive) | 10.5 µM (inactive) | 16.1 µM (inactive) | 18.7 µM (inactive) | 18.2 µM (inactive) | 20.5 µM (inactive) | 15.8 µM (inactive) | 17.5 µM (inactive) | 25 µM (inactive) | 22.2 µM (inactive) | 25.4 µM (inactive) | 32 µM (inactive) | 17 µM (inactive) | 18.1 µM (inactive) | 29 µM (inactive) | 18.7 µM (inactive) | 16.4 µM (inactive) | 15.3 µM (inactive)
11 | O=C1C(CO)=C(CO)C(=O)c2c(O)ccc(O)c21 | 0.204 µM (active) | 0.0575 µM (active) | 1.85 µM (inactive) | 2.25 µM (inactive) | 0.218 µM (active) | 0.105 µM (active) | 0.472 µM (active) | 0.236 µM (active) | 0.0497 µM (active) | 2.15 µM (inactive) | 0.389 µM (active) | 1.04 µM (active) | 0.655 µM (active) | 0.942 µM (active) | 0.117 µM (active) | 0.705 µM (active) | 0.363 µM (active) | 0.352 µM (active) | 2.22 µM (inactive) | 0.782 µM (active)
12 | CN(C)CCCN1CCC2(CCC(C(C)(C)C)CC2)CC1 | 11.3 µM (inactive) | 1.58 µM (inactive) | 6.71 µM (inactive) | 5.33 µM (inactive) | 1.56 µM (inactive) | 0.409 µM (active) | 0.47 µM (active) | 0.912 µM (active) | 1.77 µM (inactive) | 6.82 µM (inactive) | 7.48 µM (inactive) | 5.08 µM (inactive) | 3.1 µM (inactive) | 3.8 µM (inactive) | 1.25 µM (inactive) | 1.88 µM (inactive) | 1.88 µM (inactive) | 1.66 µM (inactive) | 1.76 µM (inactive) | 1.88 µM (inactive)
13 | COc1cc2[nH]c3c(c2cc1OC)CCN[C@@]31CC[C@@]2(CC3c4c(cc(OC)c(O)c42)CCN3C)C[C@@H]1OC (some centres undefined) | 25.2 µM (inactive) | 27.2 µM (inactive) | > 81.3 µM (inactive) | 36.4 µM (inactive) | 28.6 µM (inactive) | 26.2 µM (inactive) | 18.6 µM (inactive) | 18.7 µM (inactive) | 23.4 µM (inactive) | 46.5 µM (inactive) | > 79.1 µM (inactive) | 48.8 µM (inactive) | 53.2 µM (inactive) | 30.9 µM (inactive) | 25.2 µM (inactive) | 14.9 µM (inactive) | 20.5 µM (inactive) | 29.8 µM (inactive) | 29.2 µM (inactive) | 22.9 µM (inactive)
14 | Cc1cc(-c2nc3cccc(F)c3s2)ccc1N | 46.2 µM (inactive) | 8.04 µM (inactive) | > 73.5 µM (inactive) | 49.5 µM (inactive) | > 52.7 µM (inactive) | > 57.3 µM (inactive) | > 61.4 µM (inactive) | > 60.3 µM (inactive) | 42.9 µM (inactive) | 22.1 µM (inactive) | – | > 62.2 µM (inactive) | > 66.5 µM (inactive) | > 80.9 µM (inactive) | > 52.6 µM (inactive) | > 100 µM (inactive) | 0.033 µM (active) | 0.48 µM (active) | > 68.2 µM (inactive) | > 96.4 µM (inactive)
